Assay [1] concerns various gram-positive and gram-negative bacteria. The following applies: background statement on prior art; cited from earlier work.
The test system of the next assay is Proteus miravilis 2425. Nature of the assay: minimal inhibitory concentration, agar dilution method (in vitro). Type of assay: cell-based. The text has this: (§1) When determined according to the agar dilution method, the penicillins [I] afford the minimal inhibitory concentrations as shown in the following Table 1: […]
Assay [2] concerns Klebsiella pneumoniae 602. Described as above. The assay is classed as cell-based.
Source text: as §1

Assay [3] relates to Staphylococcus aureus 209P. The assay is described as above. The assay is classed as cell-based.
Source text: as §1

In another assay the test system is Escherichia coli NIHJ. The assay is described as above. The assay is classed as cell-based.
Source text: as §1

Assay [4] concerns Pseudomonas aeruginosa 104. Described as above. Type of assay: cell-based.
Source text: as §1

The test system of a further assay is Pseudomonas. To be noted: background statement on prior art; cited from earlier work.

In brackets after ≈: the same amount, converted by molar mass. A value given as a limit tells only on which side of the number the result lay.

The source of these data is patent publication US3951955A, “Penicillins substituted with heterocyclic groups” (Sumitomo Chemical Company, Limited, priority 1970, dated 1976).

The MIC is the least concentration at which growth counts as inhibited. A lower MIC goes with greater potency. As to `CC1(C)S[C@@H]2C(NC(=O)C(N)c3ccccc3)C(=O)N2[C@H]1C(=O)O` (stereo partly drawn) [Ampicillin, 6-(α-aminophenylacetamido)-penicillanic acid, reference compound], in assay [1], the “growth inhibition / antimicrobial activity against gram-positive and gram-negative bacteria” value is “inhibits the growth of various gram-positive and gram-negativebacteria”. In addition, the MIC in the assay with Proteus miravilis 2425 was 3.13 mg/L (≈ 8.96 µM); in assay [2], 50 mg/L (≈ 143 µM); in assay [3], 0.2 mg/L (≈ 0.572 µM); against Escherichia coli NIHJ, 6.25 mg/L (≈ 17.9 µM); in assay [4], greater than 200 mg/L. The “antimicrobial activity against Pseudomonas” value in the assay with Pseudomonas is “does not exert any appreciable antimicrobial activity against Pseudomonas”.
